{"source": "patent US20230242538A1", "about": "“PanK Modulators and Methods Using Same” (YALE UNIVERSITY, priority 2020, published 2023)", "key": {"[1]": {"test_system": "HeLa cells", "experiment": "General toxicity against HeLa cells, 72 hr", "type": "cell-based", "conditions": "for EC50 HeLa Tox 72 hr μM: Table 1; for EC50: Homo sapiens, HeLa, Table 1, read-out: EC50 HeLa Tox 72 hr", "protocol": "(§1) Compounds of interest were assayed for their activity as inhibitors of fungal pantothenate kinase (PanK), modulators of human PanK, and general toxicity against HeLa cells."}, "[2]": {"target": "A. fumigatus enzyme (AfPanK) (Aspergillus fumigatus, UniProt Q4WWV3)", "sequence (Q4WWV3 entry or part of it)": "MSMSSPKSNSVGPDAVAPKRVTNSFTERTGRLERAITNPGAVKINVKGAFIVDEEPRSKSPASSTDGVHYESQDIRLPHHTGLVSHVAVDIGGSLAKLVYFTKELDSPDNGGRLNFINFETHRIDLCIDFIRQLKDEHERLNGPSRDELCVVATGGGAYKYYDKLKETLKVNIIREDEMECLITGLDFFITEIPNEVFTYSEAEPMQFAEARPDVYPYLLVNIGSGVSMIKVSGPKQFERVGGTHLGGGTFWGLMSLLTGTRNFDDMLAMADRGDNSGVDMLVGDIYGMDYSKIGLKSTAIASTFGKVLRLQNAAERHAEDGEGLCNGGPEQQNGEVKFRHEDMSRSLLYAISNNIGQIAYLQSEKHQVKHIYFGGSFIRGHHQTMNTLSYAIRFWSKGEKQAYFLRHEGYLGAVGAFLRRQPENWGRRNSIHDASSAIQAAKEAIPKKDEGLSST", "experiment": "Inhibition of A. fumigatus pantothenate kinase (AfPanK)", "type": "biochemical", "conditions": "Table 1; read-out: A. fum. IC50"}, "[3]": {"test_system": "S. cerevisiae monster", "experiment": "Growth inhibition of S. cerevisiae monster", "type": "cell-based", "conditions": "Saccharomyces cerevisiae; 200 μM of compound (μg/mL equivalent in brackets), VFM medium with no pantothenic acid, 24 h, 10^5 cells/ml", "protocol": "In Table 1, “mixed” indicates a compound that is an activator at lower concentrations and is an inhibitor at higher concentrations. % growth inhibition S. cerevisiae monster was determined at 200 μM of compound in VFM medium with no pantothenic acid at 24 h (10^5 cells/ml)."}, "[4]": {"target": "hPanK3 (Homo sapiens, UniProt Q9H999)", "sequence (Q9H999 whole entry)": "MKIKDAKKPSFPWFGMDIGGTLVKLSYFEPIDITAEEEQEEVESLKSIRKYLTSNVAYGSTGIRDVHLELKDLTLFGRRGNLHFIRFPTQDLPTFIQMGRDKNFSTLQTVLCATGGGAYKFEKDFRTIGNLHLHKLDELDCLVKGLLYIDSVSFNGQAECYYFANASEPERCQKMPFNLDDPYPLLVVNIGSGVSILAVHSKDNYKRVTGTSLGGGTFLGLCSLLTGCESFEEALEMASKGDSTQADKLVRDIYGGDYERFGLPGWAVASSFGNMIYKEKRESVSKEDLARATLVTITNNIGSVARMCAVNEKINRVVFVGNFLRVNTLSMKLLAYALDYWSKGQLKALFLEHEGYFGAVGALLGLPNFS", "experiment": "Modulation of human PanK (hPanK3)", "type": "biochemical", "conditions": "Table 1", "protocol": "as §1"}}}
{"smiles": "CC(=O)N1CCN(Cc2cc(=O)n3nc(NCc4ccc(C(C)(C)C)cc4)nc3[nH]2)CC1", "note": "[Compound A1]", "values": [{"measurement": "EC50 HeLa Tox 72 hr μM", "setting": "[1]", "value": "Inactive"}, {"measurement": "IC50", "setting": "[2]", "value": 0.036, "unit": "µM"}, {"measurement": "inhibition at 200 µM", "setting": "[3]", "value": 98, "unit": "%"}]}
{"smiles": "CC(C)(C)OC(=O)N1CCN(Cc2cc(=O)n3nc(NCc4ccc(C(C)(C)C)cc4)nc3[nH]2)CC1", "note": "[Compound A2]", "values": [{"measurement": "EC50 HeLa Tox 72 hr μM", "setting": "[1]", "value": "Inactive"}, {"measurement": "IC50", "setting": "[2]", "value": 0.083, "unit": "µM"}, {"measurement": "inhibition at 200 µM", "setting": "[3]", "value": 87, "unit": "%"}]}
{"smiles": "Cc1cc(C(=O)O)n2nc(NCc3ccc(C(C)(C)C)cc3)nc2n1", "note": "[Compound A3]", "values": [{"measurement": "EC50", "setting": "[1]", "value": "> 100", "unit": "µM"}, {"measurement": "IC50", "setting": "[4]", "value": "> 5", "unit": "µM"}, {"measurement": "IC50", "setting": "[2]", "value": 0.086, "unit": "µM"}, {"measurement": "inhibition at 200 µM", "setting": "[3]", "value": 87, "unit": "%"}]}
{"smiles": "Cc1cc(C(=O)NCC(N)=O)n2nc(NCc3ccc(C(C)(C)C)cc3)nc2n1", "note": "[Compound A4]", "values": [{"measurement": "IC50", "setting": "[4]", "value": "> 100", "unit": "µM"}, {"measurement": "IC50", "setting": "[2]", "value": 2.4, "unit": "µM"}, {"measurement": "inhibition at 200 µM", "setting": "[3]", "value": 62, "unit": "%"}]}
{"smiles": "CN1CCN(Cc2cc(=O)n3nc(-c4ccc(C(C)(C)C)cc4)nc3[nH]2)CC1", "note": "[Compound A5, 2-(4-(tert-butyl)phenyl)-5-((4-methylpiperazin-1-yl)methyl)-[1,2,4]triazolo[1,5-a]pyrimidin-7(4H)-one]", "values": [{"measurement": "EC50 HeLa Tox 72 hr μM", "setting": "[1]", "value": "Inactive"}, {"measurement": "IC50", "setting": "[4]", "value": "> 100", "unit": "µM"}, {"measurement": "IC50", "setting": "[2]", "value": 5.5, "unit": "µM"}, {"measurement": "inhibition at 200 µM", "setting": "[3]", "value": 86, "unit": "%"}]}
{"smiles": "COc1cc(CN2CCOCC2)nc2nc(NCc3ccc(C(C)(C)C)cc3)nn12", "note": "[Compound A6]", "values": [{"measurement": "EC50", "setting": "[1]", "value": "> 100", "unit": "µM"}, {"measurement": "IC50", "setting": "[4]", "value": "> 100", "unit": "µM"}, {"measurement": "IC50", "setting": "[2]", "value": 31, "unit": "µM"}, {"measurement": "inhibition at 200 µM", "setting": "[3]", "value": 34, "unit": "%"}]}
{"smiles": "Cc1cc(C(=O)Nc2ccccn2)n2nc(NCc3ccc(C(C)(C)C)cc3)nc2n1", "note": "[Compound A7]", "values": [{"measurement": "IC50", "setting": "[4]", "value": "> 100", "unit": "µM"}, {"measurement": "IC50", "setting": "[2]", "value": "> 50", "unit": "µM"}, {"measurement": "inhibition at 200 µM", "setting": "[3]", "value": 79, "unit": "%"}]}
{"smiles": "COC(=O)CNC(=O)c1cc(C)nc2nc(NCc3ccc(C(C)(C)C)cc3)nn12", "note": "[Compound A8]", "values": [{"measurement": "IC50", "setting": "[4]", "value": "> 100", "unit": "µM"}, {"measurement": "IC50", "setting": "[2]", "value": "> 50", "unit": "µM"}, {"measurement": "inhibition at 200 µM", "setting": "[3]", "value": 67, "unit": "%"}]}
{"smiles": "Cc1cc(C(=O)NCCO)n2nc(NCc3ccc(C(C)(C)C)cc3)nc2n1", "note": "[Compound A9]", "values": [{"measurement": "IC50", "setting": "[4]", "value": "> 100", "unit": "µM"}, {"measurement": "IC50", "setting": "[2]", "value": "> 50", "unit": "µM"}, {"measurement": "inhibition at 200 µM", "setting": "[3]", "value": 102, "unit": "%"}]}
{"smiles": "CC(C)NCc1cc(=O)n2nc(NCc3ccc(C(C)C)cc3)nc2[nH]1", "note": "[Compound A10, 5-((isopropylamino)methyl)-2-((4-isopropylbenzyl)amino)-[1,2,4]triazolo[1,5-a]pyrimidin-7(4H)-one]", "values": [{"measurement": "IC50", "setting": "[2]", "value": 53, "unit": "µM"}, {"measurement": "inhibition at 200 µM", "setting": "[3]", "value": 13, "unit": "%"}]}
{"smiles": "CC(C)(C)c1ccc(CNc2nc3nc(CN4CCOCC4)cc(OCC(N)=O)n3n2)cc1", "note": "[Compound A11]", "values": [{"measurement": "IC50", "setting": "[2]", "value": 62, "unit": "µM"}, {"measurement": "inhibition at 200 µM", "setting": "[3]", "value": 77, "unit": "%"}]}
{"smiles": "CC(C)(C)c1ccc(CNc2nc3nc(CN4CCOCC4)cc(OCCO)n3n2)cc1", "note": "[Compound A12]", "values": [{"measurement": "IC50", "setting": "[2]", "value": 68, "unit": "µM"}, {"measurement": "inhibition at 200 µM", "setting": "[3]", "value": 94, "unit": "%"}]}
{"smiles": "CC(C)(C)c1ccc(CNc2nc3nc(CN4CCOCC4)cc(N)n3n2)cc1", "note": "[Compound A13]", "values": [{"measurement": "EC50", "setting": "[1]", "value": "> 100", "unit": "µM"}, {"measurement": "IC50", "setting": "[2]", "value": 71, "unit": "µM"}, {"measurement": "inhibition at 200 µM", "setting": "[3]", "value": 25, "unit": "%"}]}
{"smiles": "CC(C)(C)c1ccc(CNc2nc3nc(CN4CCOCC4)cc(OCC(=O)O)n3n2)cc1", "note": "[Compound A14]", "values": [{"measurement": "IC50", "setting": "[2]", "value": 78, "unit": "µM"}, {"measurement": "inhibition at 200 µM", "setting": "[3]", "value": 49, "unit": "%"}]}
{"smiles": "CCOc1cc(CN2CCOCC2)nc2nc(NCc3ccc(C(C)(C)C)cc3)nn12", "note": "[Compound A15]", "values": [{"measurement": "IC50", "setting": "[2]", "value": 98, "unit": "µM"}, {"measurement": "inhibition at 200 µM", "setting": "[3]", "value": 37, "unit": "%"}]}
